Here are results for six compounds from patent publication US8318950B2, “N-acyl amino acid derivatives, a method for the preparation thereof, a pharmaceutical composition and use thereof as anti-allergic, anti-inflammatory and hypolipidemic agents” (Otkrytoe Aktsionernoe Obschestvo-Otechestvennye Lekarstva, priority 2005, dated 2012).

Test [1] deals with guinea pig blood basophils. Description: In vitro ovalbumin (OA)-induced blood basophil degranulation of immunized guinea pig. Format: cell-based. The note with it: for inhibition at 1000 µM / inhibition at 100 µM / inhibition at 10 µM: Cavia porcellus, read-out: Complete degranulation inhibition (CDI). The method, then: Leukocytes from guinea pig blood were isolated according to the Freemel's method [Immunologicheskiye Metody under edition of G. Frimel/Moscow., “Meditsina” publishers, 1987, p. 222 in the inventor's modification].
Guinea pigs of both sexes weighing from 600 to 800 g were used to conduct the test. The animals were once immunized with a mixture of 10 μg ovalbumin and 100 mg aluminum hydroxide per one animal according to Andersson [Anderson P. Antigen-induced bronchial anaphylaxis in actively sensitized guinea-pigs.//Allergy. 1980. Vol. 35. P. 63-71].
Under ester anesthesia, 15 ml blood were drawn from guinea pig heart. Double precipitation of cells using EDTA and a citrate-containing precipitating liquid was used to isolate basophils in the leukocyte suspension.
Blood was mixed with 5% EDTA.Na2 2H2O (“Sigma”) solution at 9:1 ratio and in 30 minutes it was subjected to mild centrifugation (for 12 minutes at 80 g). Supernatant was collected and centrifuged for 15 minutes at 500 g.
To the remaining cells, a citrate-containing precipitating liquid (3) was added at proportion 3:10 (it was thermostated at 37° C. for 30 minutes). A supernatant fraction enriched by leukocytes was centrifuged for 7 minutes at 100 g. To leukocyte precipitate, 0.85% NaCl solution was added and cellular concentration was brought to 30×10^3 μl.
Protocol of the in vitro basophil degranulation test [Spravochnil po klinicheskim laboratomym metodam issledovaniya (A reference book on clinical-laboratory examination methods)/Edited by E. A. Cost/Moscow, “Meditsina” publishers, 1975, p. 130].
For the test, a centrifuge tube (3 tubes per each sample) was filled with 300 μl cellular suspension, then salt solution of a tested compound (or a salt solution in the control of spontaneous and maximum degranulation) was added and pre-incubated at 37° C. for 15 minutes, then into each tube 300 μl 1% OA solution was added (in the control of spontaneous degranulation a salt solution in the same amount was added) and once more pre-incubated at 37° C. for 10 minutes. Functional leukocyte concentration was 10^4/μl. Samples (100 μl) were taken off from each tube into separate tubes to assess a complete basophil degranulation, and to the remained cells, a cooled salt solution was added (5 ml into each tube) to arrest degranulation reaction, then the tubes were centrifuged for 7 min at 100 g, and from precipitate, preparations for microscopy were prepared. The preparations were fixed and stained according to the method of Seder et al. [Seder R. A. et al. Mouse splenic and bone marrow cell populations that express high—affinity Fcε receptors and produce interleukin-4 are highly enriched in basophils.//Proc. Natl. Acad. USA, 1991, V. 88, P. 2835-2839].
In order to detect a specific basophil granulation, the dye 0.5% alcyanic blue (pH 1.0) was used, nuclei were additionally stained with safranin (0.1% solution in 1% acetic acid). The preparations were used to assess a total degranulation inhibition.
A total degranulation inhibition (DI) (%) was calculated according to the formula: […]
max—% of degranulated basophils at the maximum degranulation (OA)
spontaneous—% of degranulated basophils in spontaneous degranulation (control)
experimental—% of degranulated basophils following exposure to the tested compound.
Assessment of a Complete Basophil Degranulation
Samples selected following basophil degranulation test (100 μl each) were poured into tubes with the dye (0.5% alcyane blue, pH 1.0) at ratio 1:1. Staining was carried out at room temperature for not less than 50 min. Stained basophils were calculated using the Fooks-Rosenthal chamber. Inhibition of a complete basophil degranulation (ICD) was calculated according to the formula: ICD(%)=1−[(Mm(c)−Mm(exper.)]/Mm(c)−Mm(OA)]×100, wherein
M m (c)—mean (by three samples) basophil number in the spontaneous basophil degranulation test
M±m (OA)—mean (by three samples) basophil number in the maximum antigen-induced basophil degranulation test; […]

The test system of test [2] is endogenous hypercholesterolemia in guinea pigs. In words: Model of endogenous hypercholesterolemia in guinea pigs (fat loading). The note with it: for Serum total cholesterol / Serum total triglyceride levels: fat loading + compound 500 μg/kg orally. It is filed as in vivo, guinea pig. Also on record: Serum total cholesterol / Serum total triglyceride levels: unit not given here. The method, then:
The study was carried out on male guinea pigs (Aguti line) weighing 304±25 g. The experiment lasted 31 days. The control group included 6 guinea pigs (intact animals). The compounds studied were administered from day 1 of the experiment (from day 1 of administering fat loading).
The animals of experimental groups received orally for 31 days a compound studied and fat loading. The compound studied at doses indicated below was administered in the form of an aqueous solution (0.5 ml per an animal); fat loading (a mixture of porcine fat and preliminary heated corn oil at 4:1 ratio by volume, at the rate of 5 ml/kg weight 0.5 h post administering the substance studied.
1) “control”—intact animals;
2) “fat”—animals that received fat loading only
3) “compound IV”—animals that received fat loading+compound IV at dose 500 μg/kg body weight;
4) “compound V”—animals that received fat loading+compound V at dose 500 μg/kg body weight.
Statistical processing was carried out using a mono-factorial analysis of variance.

Test [3] concerns antigen-induced bronchial spasm. The conditions noted are these: oral and intratracheal route, 50 μg/kg; cited from earlier work.
Test [4] concerns animals with atherogenic loading. The note with it: WO 99/01103, similar biological experiment; cited from earlier work.
Test [5] has as its system delayed type hypersensitivity. The note with it: doses 50 and 500 μg/kg; cited from earlier work.
The test system of test [6] is passive cutaneous anaphylaxis. The conditions noted are these: in vivo; cited from earlier work.
The test system of test [7] is carrageenan-induced rat paw edema. In words: Carrageenan rat paw edema. Format: in vivo. The conditions noted are these: 1% gel applied on the paw three times; paw volume 4 hours post carrageenan. The protocol: The experiments were performed on white outbred male rats weighing 250 g. A total amount of animals per an experiment was 12.
The model of carrageenan-induced edema seconding to the method of Winter et al. was used (Winter et al. Studies of the mediators of the acute inflammatory response induced in rats in different sites by carrageenan and turpentine.//J. Phamacol. 1971. V. 104. P. 15-29). 0.1 ml 1% carrageenan solution (SERVA) was subplantarly injected into the right rat paw. The animals were placed into individual chambers. Gel (1%) comprising a substance tested was applied on the paw three times: immediately following carrageenan administration, ate 1 and 2 hours post administration. 4 hours post administration of carrageenan, paw volumes were measured using a plethysmograph (Ugo Basile) Therapeutic effect of the gel was assessed by inhibition degree of inflammatory reaction in comparison with the intact left paw of the given animal and rat paw reaction of the control (untreated) group inflammatory reaction inhibition expressed in percent, was calculated according to the formula: […]

Where [8] appears, read: day 31, blood serum, 500 μg/kg orally (Table 24).
The mark [9] stands for this setting: day 31, blood serum, 500 μg/kg orally (Table 25).

As usually defined, the inhibition is the drop in the measured response relative to a control, in per cent. Consider `O=C(O)CCC(=O)N[C@@H](Cc1c[nH]cn1)C(=O)O` [Compound V, N^α-succinyl-L-histidine], for which, in test [1] (10^−3 M), the “Number of completely degranulated basophils” value (“Number” for short) came to 35.3 ± 7.29% and the inhibition at 1000 µM is 10.6 ± 7.6%. Besides, in test [1] (10^−4 M), the “Number” value is 31.2 ± 6.8% and the inhibition at 100 µM turned out to be 18.9 ± 11.8%. Moreover, in test [1] (10^−5 M), the “Number” value is reported as 24.6 ± 10.38% and the inhibition at 10 µM turned out to be 44 ± 11.3%. Besides, in test [2] (Day 28), the Serum total cholesterol was 52.9 ± 6.5 and the “Serum total triglyceride levels” value is on record as 62.3 ± 5.4. For the same compound, in test [2] (Day 31), the Serum total cholesterol turned out to be 46.3 ± 4.1 and the “Serum total triglyceride levels” value is on record as 56.0 ± 6.1. In test [2] (by day 31 of the experiment), the “lowered LDL cholesterol” value was determined as 38% and the “lowered total cholesterol level” value was 37.8%. In test [2] (setting [8]), this compound gave a Cholesterol, LDL of 41.9 ± 2.7 mg/100 ml; a Cholesterol, Total of 46.3 ± 4.1 mg/100 ml; a Cholesterol, VLDL of 2.1 ± 0.4 mg/100 ml. In test [2] (setting [9]), this compound gave a Triglycerides, LDL of 23.1 ± 1.9 mg/100 ml; a Triglycerides, Total of 56 ± 6.1 mg/100 ml; a Triglycerides, VLDL of 22.5 ± 4.4 mg/100 ml.
Regarding `O=C(O)CCCC(=O)NCCc1cnc[nH]1` [Glutaryl histamine, glutaryl histamine, reference compound], the “Complete degranulation inhibition (CDI)” value in test [1] (10^−3 M) was 9.3 ± 5.5%; in test [1] (10^−4 M), 24.1 ± 1.1%; in test [1] (10^−5 M), 0%. For the same compound, the “Number” value was 31.6 ± 6.33% in test [1] (10^−3 M), 25.3 ± 3.38% in test [1] (10^−4 M) and 29.8 ± 6.73% in test [1] (10^−5 M). For the same compound, the “Decrease in bronchial spasm value as compared to the control” value in test [3] is on record as > 50%. Also, in test [4], the “lowering total cholesterol level” value is listed as 9%. Moreover, the “intensity of delayed type hypersensitivity” value in test [5] is “significantly lower intensity”. For the same compound, the “manifestations of passive cutaneous anaphylaxis” value in test [6] is listed as “capable of lowering manifestations”.
As to `C[C@]12CCC(=O)C=C1CC[C@@H]1[C@@H]2[C@@H](O)C[C@@]2(C)[C@H]1CC[C@]2(O)C(=O)CO` [Hydrocortisone, reference compound], in test [1] (10^−3 M), the “Number” value was 10.0 ± 0.7% and the inhibition at 1000 µM was 71 ± 1.6%. For the same compound, in test [1] (10^−4 M), the “Number” value is on record as 17.3 ± 0.9% and the inhibition at 100 µM worked out at 48 ± 0.8%. In test [1] (10^−5 M), the “Number” value stood at 20.0 ± 1.3% and the inhibition at 10 µM is 40 ± 0.6%.
The compound `COC(=O)[C@H](Cc1c[nH]cn1)NC(=O)CCC(=O)O` [VI, N^α-succinyl-L-histidine methyl ester] had an inhibition of edema in test [7] of 44%.
For `COC(=O)[C@H](Cc1c[nH]c2ccccc12)NC(=O)CCCC(=O)O` [XIII, N^α-glutaryl-L-tryptophane methyl ester], the inhibition of edema in test [7] turned out to be 40%.
The same measure, in the same setting: under `O=C(O)Cc1ccccc1Nc1c(Cl)cccc1Cl` [diclofenac, reference compound] stands 62%.
